The text below walks through data of US7227023B2, “Quinoline 3-amino chroman derivatives” (Wyeth, priority 2003, dated 2007).

Structures can show the parent of a compound that is named as a salt. Bounds are passed on as bounds.

The target of data set [1] is T1, 5-HT Transporter (Rattus norvegicus, UniProt P31652).
T1 construct: ability to displace ^3H-paroxetine from male rat cortical membranes; from tissue; host or cells: male rat cortex (membranes)
In words: 3H-paroxetine displacement, affinity for the serotonin transporter. Type of data set: binding. Particulars: male rat cortical membranes.

For data set [2], the target named is T2, cloned human 5-HT1A receptors (Homo sapiens, UniProt P08908).
T2 construct: expressed in transfected cells
T2 sequence (P08908 1-422): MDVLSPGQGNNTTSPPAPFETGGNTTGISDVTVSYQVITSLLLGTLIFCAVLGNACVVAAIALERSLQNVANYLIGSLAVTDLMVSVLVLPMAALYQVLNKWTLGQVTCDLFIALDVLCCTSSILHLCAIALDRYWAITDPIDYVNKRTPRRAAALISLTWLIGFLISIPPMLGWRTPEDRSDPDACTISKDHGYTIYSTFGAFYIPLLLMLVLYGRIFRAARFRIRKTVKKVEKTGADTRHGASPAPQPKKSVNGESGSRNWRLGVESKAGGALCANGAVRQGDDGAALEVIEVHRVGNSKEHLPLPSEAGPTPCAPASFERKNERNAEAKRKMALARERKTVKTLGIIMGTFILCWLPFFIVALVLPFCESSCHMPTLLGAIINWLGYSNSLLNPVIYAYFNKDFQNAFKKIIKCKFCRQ
In words: 35S-GTPγS binding assay, agonist activity at 5-HT1A receptors. The format is biochemical. Particulars: membranes containing cloned human 5-HT1A receptors; for EC50: read-out: 5-HT1A Function EC50; for Emax / 5-HT1A Function Emax (maximum stimulatory effect): value in parentheses; for Emax: read-out: 5-HT1A Function Emax (maximum stimulatory effect); for 5-HT1A Function Emax (maximum stimulatory effect): in % (unit assumed). From the text: The agonist activity at 5-HT1A receptors was established by using a ^35S-GTPγS binding assay similar to that used by Lazareno and Birdsall (Br. J. Pharmacol., 1993, 109:1120). The binding assay determines the test compound's ability to affect the binding of ^35S-GTPγS to membranes containing cloned human 5-HT1A receptors. Agonists produce an increase in binding whereas antagonists produce no increase but rather reverse the effects of the standard agonist 8-OH-DPAT. The test compound's maximum stimulatory effect is represented as the Emax, while its potency is defined by the EC50.
For orientation: Binding of GTPγS marks nucleotide exchange on a G protein.

Data set [3] concerns the target T3, human 5-HT1A receptors (Homo sapiens, UniProt P08908).
T3 construct: expressed in transfected cells; host or cells: CHO cells, stably transfected
T3 sequence (P08908 1-422): T2 sequence (P08908 1-422)
As to the kind of experiment: [3H] 8-OH-DPAT displacement, affinity for the 5-HT1A receptor. Type of data set: binding. Particulars: CHO cells stably transfected with human 5-HT1A receptors. From the text: High affinity for the serotonin 5-HT1A receptor was established by testing the claimed compound's ability to displace [^3H] 8-OH-DPAT (dipropylaminotetralin) from the 5-HT1A serotonin receptor following a modification of the procedure of Hall et al. (J. Neurochem., 1985, 44: 1685) which utilizes CHO cells stably transfected with human 5-HT1A receptors.

T1 sequence (P31652 whole entry): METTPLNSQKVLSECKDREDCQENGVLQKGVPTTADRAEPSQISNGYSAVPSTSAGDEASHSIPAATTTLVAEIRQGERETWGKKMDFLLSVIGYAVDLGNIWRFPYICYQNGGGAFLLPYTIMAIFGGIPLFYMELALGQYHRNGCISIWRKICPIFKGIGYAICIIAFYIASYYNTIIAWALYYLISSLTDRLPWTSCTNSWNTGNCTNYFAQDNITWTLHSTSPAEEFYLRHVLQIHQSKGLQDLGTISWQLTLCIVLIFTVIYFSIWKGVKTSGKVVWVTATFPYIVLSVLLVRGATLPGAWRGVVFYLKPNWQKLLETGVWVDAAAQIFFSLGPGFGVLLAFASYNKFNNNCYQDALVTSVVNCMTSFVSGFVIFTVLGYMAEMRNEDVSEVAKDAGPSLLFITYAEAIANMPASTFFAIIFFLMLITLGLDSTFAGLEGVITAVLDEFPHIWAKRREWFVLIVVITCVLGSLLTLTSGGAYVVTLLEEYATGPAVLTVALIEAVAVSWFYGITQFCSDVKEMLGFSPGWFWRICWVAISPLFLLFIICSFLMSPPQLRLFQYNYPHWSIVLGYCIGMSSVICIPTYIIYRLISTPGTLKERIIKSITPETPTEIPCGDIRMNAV

For `Fc1ccc2[nH]cc(CCCCNC3COc4c(ccc5ncccc45)C3)c2c1` (centres unmarked) [Compound 9, N-[4-(5-fluoro-1H-indol-3-yl)butyl]-3,4-dihydro-2H-pyrano[2,3-f]quinolin-3-amine], affinity in data set [1] was put at a Ki of 1.18 nM. Also, in data set [2], the EC50 (in general, the concentration giving half of the maximal effect) was found to be 5940 nM and the maximum response (Emax) (in general, the maximal effect, on the per cent scale that the assay sets) came to 100%.

For `CCCN(CCCc1c[nH]c2ccc(F)cc12)C1COc2ccc3ncccc3c2C1` (single isomer, unassigned; (+)) [Compound 4, (+)-N-[3-(5-fluoro-1H-indol-3-yl)propyl]-N-propyl-2,3-dihydro-1H-pyrano[3,2-f]quinolin-2-amine], affinity in data set [1] was put at a Ki of 19 nM. In addition, in data set [2], the EC50 is 300 nM and the “5-HT1A Function Emax (maximum stimulatory effect)” value (“5-HT1A Function Emax” for short) worked out at 99.92. Moreover, the affinity in data set [3], expressed as Ki, was 239 nM.

Consider `CCCN(CCCc1c[nH]c2ccc(F)cc12)C1COc2ccc3ncccc3c2C1` (single isomer, unassigned; (-)) [Compound 3, (−)-N-[3-(5-fluoro-1H-indol-3-yl)propyl]-N-propyl-2,3-dihydro-1H-pyran[3,2-f]quinolin-2-amine], for which, in data set [1], the affinity, expressed as Ki, was 8 nM. In data set [2], the EC50 was determined as 630 nM and the “5-HT1A Function Emax” value is recorded as 54.72. In addition, the affinity in data set [3] corresponds to a Ki of 210 nM.

For `CCCN(CCCc1c[nH]c2ccc(F)cc12)C1COc2c(ccc3ncccc23)C1` (centres unmarked) (as salt: hydrochloride) [Compound 8, N-[3-(5-fluoro-1H-indol-3-yl)propyl]-N-propyl-3,4-dihydro-2H-pyrano[2,3-f]quinolin-3-amine], the melting point (usually the temperature of the solid-liquid transition) is 134 °C (dec.).

As for `Fc1ccc2[nH]cc(CCCNC3COc4ccc5ncccc5c4C3)c2c1` (single isomer, unassigned; (+)) [Compound 1a, (+)-N-[3-(5-fluoro-1H-indol-3-yl)propyl]-2,3-dihydro-1H-pyrano[3,2-f]quinolin-2-amine], in data set [2], the concentration for a half-maximal effect (EC50) came to 730 nM and the maximal response (Emax) was found to be 100%. In addition, affinity in data set [3] was put at a Ki of 23.9 nM.

For `CCCN(CCc1c[nH]c2ccc(F)cc12)C1COc2ccc3ncccc3c2C1` (centres unmarked) [Compound 6, N-[2-(5-fluoro-1H-indol-3-yl)ethyl]-N-propyl-2,3-dihydro-1H-pyrano[3,2-f]quinolin-2-amine], in data set [1], the Ki (as a rule, a measure of affinity in units of concentration, obtained from inhibition or displacement) was 40 nM. In data set [2], the EC50 was 190 nM and the Emax is 41.3%. Moreover, the Ki in data set [3] was 478 nM.

As to `Fc1ccc2[nH]cc(CCCNC3COc4c(ccc5ncccc45)C3)c2c1` (centres unmarked) (as salt: hydrochloride) [Compound 7, N-[3-(5-fluoro-1H-indol-3-yl)propyl]-3,4-dihydro-2H-pyrano[2,3-f]quinolin-3-amine], the melting point is 300 °C (dec.).

The compound `CCCN(CCCCc1c[nH]c2ccc(F)cc12)C1COc2c(ccc3ncccc23)C1` (centres unmarked) [Compound 10, N-[4-(5-fluoro-1H-indol-3-yl)butyl]-N-propyl-3,4-dihydro-2H-pyrano[2,3-f]quinolin-3-amine] had a Ki in data set [1] of 12 nM.

Regarding `CCCN(CCCCc1c[nH]c2ccc(F)cc12)C1COc2c(ccc3ncccc23)C1` (centres unmarked) (as salt: hydrochloride) [Compound 10, N-[4-(5-fluoro-1H-indol-3-yl)butyl]-N-propyl-3,4-dihydro-2H-pyrano[2,3-f]quinolin-3-amine], the melting point was 164 °C (dec.).

As to `Fc1ccc2[nH]cc(CCCNC3COc4c(ccc5ncccc45)C3)c2c1` (centres unmarked) [Compound 7, N-[3-(5-fluoro-1H-indol-3-yl)propyl]-3,4-dihydro-2H-pyrano[2,3-f]quinolin-3-amine], in data set [1], the Ki worked out at 2.83 nM. Also, in data set [2], the EC50 worked out at 1200 nM and the Emax stood at 100%. The same compound displayed an inhibition constant Ki in data set [3] of 13.6 nM.

`CCCN(CCc1c[nH]c2ccc(F)cc12)C1COc2ccc3ncccc3c2C1` (centres unmarked) (as salt: hydrochloride) [Compound 6, N-[2-(5-fluoro-1H-indol-3-yl)ethyl]-N-propyl-2,3-dihydro-1H-pyrano[3,2-f]quinolin-2-amine] returned a melting point of 67 °C.

As to `CCCN(CCCc1c[nH]c2ccc(F)cc12)C1COc2c(ccc3ncccc23)C1` (centres unmarked) [Compound 8, N-[3-(5-fluoro-1H-indol-3-yl)propyl]-N-propyl-3,4-dihydro-2H-pyrano[2,3-f]quinolin-3-amine], the Ki in data set [1] came out at 15 nM. Also, in data set [2], the EC50 stood at 1710 nM and the Emax worked out at 68.3%.

In the case of `Fc1ccc2[nH]cc(CCCNC3COc4ccc5ncccc5c4C3)c2c1` (centres unmarked) [Compound 1, N-[3-(5-fluoro-1H-indol-3-yl)propyl]-2,3-dihydro-1H-pyrano[3,2-f]quinolin-2-amine], in data set [2], the concentration giving a half-maximal response (EC50) came out at 180 nM and the Emax came to 75.8%. The Ki in data set [3] is 62.6 nM.

Compound `Fc1ccc2[nH]cc(CCNC3COc4ccc5ncccc5c4C3)c2c1` (centres unmarked) [Compound 5] registered a Ki in data set [1] of 24 nM. Moreover, in data set [2], the EC50 stood at 5000 nM and the Emax was found to be 30%.

With `Fc1ccc2[nH]cc(CCCNC3COc4ccc5ncccc5c4C3)c2c1` (centres unmarked) (as salt: hydrochloride) [Compound 1, N-[3-(5-fluoro-1H-indol-3-yl)propyl]-2,3-dihydro-1H-pyrano[3,2-f]quinolin-2-amine], the melting point is greater than 180 °C.

As to `CCCN(CCCc1c[nH]c2ccc(F)cc12)C1COc2ccc3ncccc3c2C1` (single isomer, unassigned; (+)) (as salt: hydrochloride) [Compound 4, (+)-N-[3-(5-fluoro-1H-indol-3-yl)propyl]-N-propyl-2,3-dihydro-1H-pyrano[3,2-f]quinolin-2-amine], the melting point is 106 °C (dec.).

As for `CCCN(CCCc1c[nH]c2ccc(F)cc12)C1COc2ccc3ncccc3c2C1` (single isomer, unassigned; (-)) (as salt: hydrochloride) [Compound 3, (−)-N-[3-(5-fluoro-1H-indol-3-yl)propyl]-N-propyl-2,3-dihydro-1H-pyran[3,2-f]quinolin-2-amine], the melting point was 83.5 °C (dec.).

With `CCCN(CCCc1c[nH]c2ccc(F)cc12)C1COc2ccc3ncccc3c2C1` (centres unmarked) (as salt: hydrochloride) [Compound 2, N-[3-(5-fluoro-1H-indol-3-yl)propyl]-N-propyl-2,3-dihydro-1H-pyrano[3,2-f]quinolin-2-amine], the melting point is greater than 148 °C.

With `Fc1ccc2[nH]cc(CCCCNC3COc4c(ccc5ncccc45)C3)c2c1` (centres unmarked) (as salt: hydrochloride) [Compound 9, N-[4-(5-fluoro-1H-indol-3-yl)butyl]-3,4-dihydro-2H-pyrano[2,3-f]quinolin-3-amine], the melting point was 173 °C (dec.).

Regarding `Fc1ccc2[nH]cc(CCCNC3COc4ccc5ncccc5c4C3)c2c1` (single isomer, unassigned; (+)) (as salt: hydrochloride) [Compound 1a, (+)-N-[3-(5-fluoro-1H-indol-3-yl)propyl]-2,3-dihydro-1H-pyrano[3,2-f]quinolin-2-amine], the melting point was 330 °C (dec.).

As for `Fc1ccc2[nH]cc(CCCNC3COc4ccc5ncccc5c4C3)c2c1` (single isomer, unassigned; (-)) [Compound 1b, (−)-N-[3-(5-fluoro-1H-indol-3-yl)propyl]-2,3-dihydro-1H-pyrano[3,2-f]quinolin-2-amine], in data set [2], the EC50 turned out to be 120 nM and the “5-HT1A Function Emax” value amounted to 85.87. Also, in data set [3], the Ki is 314 nM.

On to `Fc1ccc2[nH]cc(CCNC3COc4ccc5ncccc5c4C3)c2c1` (centres unmarked) (as salt: hydrochloride) [Compound 5], for which the melting point was 91 °C (dec.).

Take `Fc1ccc2[nH]cc(CCCNC3COc4c(ccc5ncccc45)C3)c2c1` (single isomer, unassigned; (+)) [Compound 7a, (+)-N-[3-(5-fluoro-1H-indol-3-yl)propyl]-3,4,-dihydro-2H-pyrano[2,3-f]quinolin-3-amine]: the affinity in data set [1] corresponds to a Ki of 2.83 nM. Also, in data set [2], the concentration for a half-maximal effect (EC50) stood at 320 nM and the “5-HT1A Function Emax” value was found to be 74.80.

In the case of `Fc1ccc2[nH]cc(CCCNC3COc4c(ccc5ncccc45)C3)c2c1` (single isomer, unassigned; (-)) (as salt: hydrochloride) [Compound 7b, (−)-N-[3-(5-fluoro-1H-indol-3-yl)propyl]-3,4-dihydro-2H-pyrano[2,3-f]quinolin-3-amine], the melting point was 250 °C (dec.).
